From patent US7485655B2, “2-Aminothiazole allosteric enhancers of A1 adenosine receptors” (University of Virginia Patent Foundation, priority 2002, dated 2009)

Tests used:
[1] = system: chicken chorioallantoic membrane (CAM); assay: CAM assay, adenosine applied via Elvax pellets; assay type: in vivo; settings: Elvax pellet with 3 mg adenosine, left in place seven days
Method: Fertile White Leghorn chicken eggs were obtained from Truslow Farms (Chesterfield, Mo.). Eggs were incubated at 37° for 7 days, then a 1.5 cm window was cut into each egg over the CAM. Pellets were applied to the CAMS and the windows closed with cellophane tape. Eggs were incubated until day 14 when the CAMS were fixed. […] The pellets were placed on the CAM where there were a few vessels present and were left in place for seven days. The CAMS then were fixed in 10% buffered formalin and vessels were counted under 20× magnification using a Nikon stereomicroscope. The quantitation of vascular number is presented as vascular density index VDI that was an adaptation of a method described by Harris-Hooker (Harris-Hooker et al., Neovascular Responses Induced by Cultured Aortic Endothelial Cells, J Cell. Phys., 114, 302-310, 1983). A plastic cover slip inscribed with 4, 5, 6, and 8 mm diameter concentric circles was centered over the adenosine pellet on the formalin-fixed CAM. The vascular density was judged by counting the numbers of the vessels which intersected the circles. This technique allowed counting of vessels down to 10-12 u in diameter. The positioning of the pellets on the CAM was randomized. […] Adenosine was delivered by other means as well.

[2] = system: chicken chorioallantoic membrane (CAM); assay: CAM assay, drug applied daily on filter paper disc; assay type: in vivo; settings: for angiogenic response in the CAM (vessel density at edge of disk): 100 nM doses, 100 μl daily for 7 days on filter paper disk
human A3 receptor = target: T1, human A3 receptor (Homo sapiens, UniProt P0DMS8); settings: cited from earlier work
T1 sequence (P0DMS8 1-318): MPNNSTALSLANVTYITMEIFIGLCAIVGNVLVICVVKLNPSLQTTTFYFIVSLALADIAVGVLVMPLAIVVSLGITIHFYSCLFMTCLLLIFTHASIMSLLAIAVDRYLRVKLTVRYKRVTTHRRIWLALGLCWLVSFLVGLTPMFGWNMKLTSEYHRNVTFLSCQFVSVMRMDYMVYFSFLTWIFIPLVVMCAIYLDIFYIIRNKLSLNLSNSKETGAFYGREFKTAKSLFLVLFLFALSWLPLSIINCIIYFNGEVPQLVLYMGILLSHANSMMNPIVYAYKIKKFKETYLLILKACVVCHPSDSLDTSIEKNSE

rat mesentery = assay: Rat mesentery angiogenesis, chronic intraperitoneal infusion by Alzet osmotic pump; assay type: in vivo; settings: chronic infusion via Alzet pumps into the peritoneal cavity of a rat
Method: Drug application into rat mesentery using infusion pumps. Alzet osmotic pumps were filled with drug or vehicle to a volume of 200 μl. The abdominal cavities of anesthetized 150 g Sprague-Dawley rats were incised and pumps implanted into the intraperitoneal cavity. The pumps delivered the drug at 1.0 μl/hr. After one week mesenteric samples were taken between vascular arcades along the length of the small bowel. Specimens were fixed and stained using a BS:lectin stain.
The chronic infusion was an advantage because the model is not an ischemic one, so steady long term administration of the PD 81,723 may help to augment the effects of lower concentrations of endogenous adenosine.

## Nc1ncnc2c1ncn2[C@@H]1O[C@H](CO)[C@@H](O)[C@H]1O [Adenosine]
[1]
  angiogenesis in the windowed CAM model (vascular density index): stimulated angiogenesis

## CCNC(=O)[C@H]1O[C@@H](n2cnc3c(N)nc(NCCc4ccc(CCC(=O)O)cc4)nc32)[C@H](O)[C@@H]1O [CGS21680]
[2]
  angiogenic response in the CAM (vessel density at edge of disk): No angiogenic response

## OC[C@H]1O[C@@H](n2cnc3c(NC4CCCC4)ncnc32)[C@H](O)[C@@H]1O [CPA, Cyclopentyladenosine]
[2]; 20 nM CPA alone
  stimulation of angiogenesis in the CAM at low dose: did not stimulate angiogenesis
[2]
  angiogenic response in the CAM (vessel density at edge of disk): positive angiogenic response

## CCOC(=O)C1=C(C)NC(c2ccccc2)=C(C(=O)OCc2ccccc2)C1C#Cc1ccccc1 (centres unmarked) [MRS1191]
Human A3 receptor
  selectivity for the human A3 over the A1 receptor: > 1300 fold

## CCNC(=O)[C@H]1O[C@@H](n2cnc3c(N)ncnc32)[C@H](O)[C@@H]1O [NECA]
[2]
  angiogenic response in the CAM (vessel density at edge of disk): positive angiogenic response

## Cc1sc(N)c(C(=O)c2cccc(C(F)(F)F)c2)c1C [PD 81,723]
Rat mesentery
  angiogenesis in mature mammalian animal model: Stimulation of angiogenesis
[2]; 100 μM on filter paper disc, versus vehicle, no applied agonist
  stimulation of angiogenesis in the CAM: 10%

## CC(C)N(C)c1nc2c(N[C@@H]3CC4CC3CC4O)ncnc2n1C (some centres unmarked) [WRC-0571]
[2]; C17 plus WRC-0571
  block of C17-stimulated angiogenesis in the CAM: blocked
[2]; CPA 100 nM with 1 μM WRC-0571
  block of angiogenic effect of CPA in the CAM: completely blocked
[2]; PD plus WRC-0571
  block of the effects of PD on angiogenesis in the CAM: completely blocked
[2]; in vivo
  block of the effects of endogenous adenosine in the CAM: blocked the effects of endogenous adenosine

## CCCn1c(=O)c2[nH]c(-c3ccc(OCC(=O)NCCN)cc3)nc2n(CCC)c1=O [XAC, xanthine amine congener]
[2]; nonselective antagonist alone, filter paper disk, four eggs
  effect on baseline angiogenesis in the CAM: did not inhibit baseline angiogenesis

## CNC(=O)[C@H]1O[C@@H](n2cnc3c(NCc4cccc(I)c4)ncnc32)[C@H](O)[C@@H]1O [m-MECA, N^6-iodobenzyl-5′-N-methyl-carboxamidoadenosine]
[2]
  angiogenic response in the CAM (vessel density at edge of disk): positive angiogenic response
